Measurements reported in patent US20090227606A1, “Methods for Preventing or Treating Acute and Chronic Pain” (priority 2006, published 2009).
“Also recorded” adds a separate entry of the source.

Columns and labels:
GLAST = experiment: Western blot of cultured astrocytes, GLAST protein; assay type: cell-based, rat
Protocol: (§1) After approximately 14 days (2 days after subplating into plates, DIV 14) astrocytes had formed a confluent monolayer. […] Phase contrast microscopy was then carried out in order to assess the morphology of cells after the various treatments. Length of astrocyte processes was quantified by measuring all processes in 2-3 phase contrast images/group by an independent observer, blinded to the treatment groups using Image J v1.34s (National Institutes of Health, Bethesda, Md.).
Cells were scraped into PBS containing a protease inhibitor cocktail (1:1000, Sigma Chemical Co., St. Louis, Mo.) and then lysed by sonication in 5 one-second pulses. The samples were stored at −80° C. until use. Total protein was determined using the Lowry method (DC assay, Bio-Rad, Hercules, Calif.). Forty micrograms of protein (diluted in sample buffer and boiled) and standard protein markers were subjected to SDS/7.5% polyacrylamide gel electrophoresis and transferred to polyvinylidene difluoride (PVDF) membranes. Nonspecific binding was blocked by incubation with 5% milk/PBS-Tween at room temperature for 1 hour followed by incubation overnight at 4° C. with rabbit anti-GLT-1 (1:500) or guinea pig anti-GLAST (1:2500). The following day, blots were washed and incubated for 1 hour at room temperature with goat anti-rabbit HRP-conjugated secondary (1:3000) or goat anti-guinea pig HRP-conjugated secondary antibody (1:5000) and visualized with enhanced chemiluminescence (ECL). Images were obtained using the Typhoon Imaging System (Amersham-GE Healthcare, Piscataway, N.J.). Finally, blots were incubated for 15 minutes in stripping buffer and reprobed with a monoclonal mouse anti-β-actin antibody (1:10,000) as a loading control. Densitometric analysis was performed using ImageQuant 5.2 (Molecular Dynamics, GE Healthcare, Piscataway, N.J.).

cultured astrocytes = experiment: Reversibility of astrocyte phenotype change after 7 day washout; assay type: cell-based, rat; conditions: 7 days treatment (high dose), then 7 day washout in control media
Protocol: In order to ensure that the morphological effects of propentofylline on astrocytes were due to specific pharmacological effects and not due to toxicity, experiments were performed to determine if the phenotype change observed was reversible.

MCP-1 (CCL2) = experiment: ELISA of MCP-1 release from cultured astrocytes; assay type: cell-based, rat; conditions: seven days
Protocol: as §1
Standard ELISA was performed for quantitative determination of MCP-1 and MIP-2 protein in cell culture supernatant. Assays were carried out according to the manufacturer's specifications (Biosource, Camarillo, Calif.) using the sandwich enzyme immunoassay procedure. Optical density at 450 nm was obtained using the MRX Revelations program (Dynex Technologies, Chantilly, Va.) and relative protein concentrations were determined by comparing samples to the standard curve generated.

GFAP = GFAP expression in mouse spinal cord dorsal horn; assay type: in vivo; conditions: dorsal horn upper laminae, day 12, 10 mg/kg i.p. daily
Protocol: With these in vivo data collected, further experiments were performed in the transgenic mice to more clearly define the effects of propentofylline treatment on GLT-1 and GLAST in the spinal cord. As discussed above, following in vivo testing, mice were transcardially perfused and tissue was fixed with paraformaldehyde. Lumbar spinal cord sections were identified and post-fixed in paraformaldehyde. After one week in sucrose to prevent freeze fracture, spinal cord segments were frozen in dry ice, mounted and prepared with cryostat sectioning. Sections were then subjected to immunohistochemical analysis. […] In order to quantitate the relative number of eGFP (marker for GLT-1) or DsRed (marker for GLAST) puncta in each spinal cord dorsal horn, images using a fluorescence microscope were taken with a Q-Fire cooled camera (397 ms exposure). […] An observer blind to the treatment groups was used to count the relative number of GLT-1 or GLAST positive puncta in the ipsilateral (injured) dorsal horn versus the contralateral (non-injured) dorsal horn. […]
As described previously with rats, mice were transcardially perfused with 0.1 M PBS (phosphate-buffered saline), pH 7.4, followed by 4%-paraformaldehyde in PBS on day 12 post-L5 spinal nerve transection. […] The sections were examined with a fluorescence microscope, and images were captured with a Q-Fire cooled camera. […]

[1] = test system: L5 spinal nerve transection; conditions: systemically or intrathecally administered; Sweitzer et al. 2001; cited from earlier work

For CCCn1cnc2c1c(=O)n(CCCCC(C)=O)c(=O)n2C [propentofylline], the “GLAST protein level, in words” value (GLAST; 3 or 7 days, normalized to β-actin) was “dose-dependently increased levels of GLAST protein”, the “increase in GLAST protein” value (GLAST; 7-day treatment, 1000 μM) was 6 fold and the “reversibility of morphological change” value (cultured astrocytes) was “reversal was more complete in propentofylline-treated cells”. The “LPS-induced MCP-1 (CCL2) release” value (MCP-1 (CCL2); LPS 1 μg/ml, propentofylline 1000 μM, db-cAMP 250 μM) was “reversed by co-treatment with propentofylline; also recorded: significantly attenuated”, the “basal MCP-1 (CCL2) release, treatment alone” value (MCP-1 (CCL2); without LPS) was “had no effect” and the “injury-induced GFAP expression” value (GFAP) was “suppressed injury-induced GFAP expression”. The “mechanical allodynia induced by L5 spinal nerve transection” value [1] was “exhibits anti-allodynic properties; also recorded: attenuated mechanical allodynia”.
